Data reported in patent US10690657B2, “Epithelial tissue model” (Nederlandse Organisatie voor …, priority 2012, dated 2020).

Assays:
[1] = tested on: porcine jejunal tissue; assay: Transport (apical to basolateral) across porcine jejunal tissue, Papp; settings: animal of 12 kg body weight in comparison to an animal of 17 or 20 kg (FIG. 10)
Source text: (§1) After anesthesia of the animal and resection of intestinal tissue, the tissue was directly added to ice-cold carbonated (5% CO2 and 95% O2) KRB buffer, pH 7.4, further referred to as KRB buffer. • 2. Intestinal tissue was transported to the test site in ice-cold KRB buffer • 3. At the test site, the intestinal tissue was cut open, rinsed with ice-cold KRB buffer when needed, placed on a petridish, submerged in ice-cold KRB buffer and muscle layers were stripped of. • 4. Intestinal segments with a diameter of 20 mm were punched, added to ice-cold KRB buffer, and kept on ice. • 5. After collecting all the segments needed for the incubation, the system was assembled (including to a total of 24 segments per system) and placed on ice. […] Subsequently, samples were taken from the apical and basolateral compartments for further analysis either using liquid scintillation counting (LSC), UV-Absorbance, Fluorescence, High Pressure Liquid Chromatography (HPLC), Liquid chromatography-Mass Spectrometry (LCMS), Liquid chromatography-Tandem Mass Spectrometry (LC-MSMS), Enzyme-Linked Immunosorbent Assay (ELISA), or Radio-Immuno Assay (RIA). • 11. […]
(§2) The apparent permeability value (Papp) is calculated using the following equation: Papp=(dQ/dt)/(A*C0), where dQ/dt refers to the permeability rate (mol/s), A is the surface area filter insert (cm2) and C0 is the initial concentration (mol/L). […]

[2] = tested on: porcine ileal tissue; assay: Translocation across porcine ileal tissue; assay type: in vitro ADME; settings: between 0 and 60 minutes (FIG. 11)
Method: Translocation of the bacterial endotoxin lipopoly-saccharide (LPS) across the porcine ileal tissue during incubation time.

[3] = tested on: porcine jejunal tissue
Source text: as §1, §2

Cn1c(N)nc2ncc(-c3ccccc3)cc21 [[14C]-PhIP, 2-amino-1-methyl-6-phenylimidazo[4,5-b]pyridine]
Transport across porcine jejunal tissue from animals with a different age [1]: higher transport

lipopolysaccharide [LPS]
Lag time of transport across porcine ileal tissue [2]: clear lag time of transport

Cn1c(=O)c2c(ncn2C)n(C)c1=O [caffeine]
Apparent permeability (Papp) over time [3]: constant Papp value over time
